Experimental data reported in patent publication US8865865B2, “N-terminally modified tetrapeptide derivatives having a C-terminal arginine mimetic” (Philipps-Universitat Marburg, priority 2008, dated 2014).
Like-named read-outs stand apart in the source and are kept apart here. Square brackets hold non-standard residues; d marks the D form. Peptide text beside a SMILES is read from it. * marks the point of attachment. hArg = N=C(N)NCCCC[C@H](N)C(=O)O; Agmatine = N=C(N)NCCCCN*; PhAc = O=C(Cc1ccccc1)*

Tests used:
[1] = biological target: T1, Recombinantly produced human furin (Homo sapiens, UniProt P09958); experiment: Enzyme kinetic studies to determine the inhibitory effect on furin (fluorogenic substrate Pyr-Arg-Thr-Lys-Arg-AMC); type: biochemical
T1 construct: made in house
T1 sequence (P09958 108-794): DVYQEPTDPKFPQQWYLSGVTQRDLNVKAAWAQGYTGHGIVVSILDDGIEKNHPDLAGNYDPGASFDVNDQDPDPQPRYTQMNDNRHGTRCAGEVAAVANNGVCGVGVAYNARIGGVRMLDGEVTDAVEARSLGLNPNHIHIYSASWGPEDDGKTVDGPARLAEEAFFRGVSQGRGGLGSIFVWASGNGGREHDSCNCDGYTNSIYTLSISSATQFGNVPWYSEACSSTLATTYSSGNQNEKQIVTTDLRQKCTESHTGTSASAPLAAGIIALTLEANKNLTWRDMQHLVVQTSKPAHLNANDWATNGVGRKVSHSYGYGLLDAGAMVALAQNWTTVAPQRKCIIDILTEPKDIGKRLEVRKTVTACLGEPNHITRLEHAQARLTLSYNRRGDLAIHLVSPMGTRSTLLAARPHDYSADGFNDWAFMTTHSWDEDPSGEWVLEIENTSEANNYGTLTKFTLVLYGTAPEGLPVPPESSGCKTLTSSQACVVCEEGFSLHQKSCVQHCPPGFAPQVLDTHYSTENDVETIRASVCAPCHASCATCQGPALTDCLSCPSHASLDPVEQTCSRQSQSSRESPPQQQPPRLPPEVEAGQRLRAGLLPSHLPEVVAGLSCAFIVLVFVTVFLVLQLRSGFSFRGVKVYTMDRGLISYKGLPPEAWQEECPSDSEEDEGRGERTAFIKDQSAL
Description: The determination of the inhibitory effect was carried out with a fluorescence plate reader Safire^2 from the Tecan company (λEx=380 nm, λEm=460 nm) and Pyr-Arg-Thr-Lys-Arg-AMC (Bachem, No: I-1650) as the substrate. Recombinantly produced human furin (Kacprzak, M. M. et al., J. Biol. Chem., 2004, 279, 36788-36794) was used in the measurement assay in a concentration of approx. 0.95 nM.
To determine the inhibition constants, the inhibitor concentration was varied at least over the range of an order of magnitude at a constant substrate concentration (12.5 μM in the assay), and, respectively, the steady-state velocity was determined. Km and Vmax were determined by means of v/S characteristics parallel to each inhibitor measurement. The calculation of Ki values was carried out through adjustment of the determined velocities as a function of the inhibitor concentration to the velocity equation for competitively, reversibly-binding inhibitors: […]

[2] = test system: avian influenza virus (FPV) A/FPV/Rostock/34 (H7N1); type: cell-based, influenza virus A/FPV/Rostock/34 (H7N1); details: 25 μM inhibitor, MDCK cells, MOI 10^-5, 72 h
[3] = test system: MDCK cells; details: 25 μM inhibitor, 72 h
[4] = biological target: furin (Homo sapiens, UniProt P09958); details: Kacprzak et al., J. Biol. Chem. 2004; read-out: inhibition constant (Ki value) for furin; cited from earlier work
Sequence of furin (P09958 108-794, species assumed): as the sequence (P09958 108-794) above

[5] = Table 3, methods as in practical embodiment 6, read-out: Ki for the inhibition of furin
[6] = Table 2, substrate 12.5 μM, furin approx. 0.95 nM, competitive reversible model, read-out: Ki value for the inhibition of furin

CC(C)C(NC(=O)C(CCCNC(=N)N)NC(=O)Cc1ccccc1)C(=O)NC(CCCCN)C(=O)NCc1ccc(C(=N)N)cc1 (stereo not drawn) [Inhibitor 33]
Ki [1, 5]: 0.0015 µM

CC(C)[C@H](NC(=O)[C@H](CCCNC(=N)N)NC(=O)Cc1ccccc1)C(=O)N[C@@H](CCCCN)C(=O)NCCCCNC(=N)N [Inhibitor 10] (PhAc-Arg-Val-Lys-Agmatine)
Ki [1, 6]: 0.049 µM

N=C(N)NCCCC(NC(=O)Cc1ccccc1)C(=O)NC(CN)C(=O)NC(CCCCN)C(=O)NCc1ccc(C(=N)N)cc1 (stereo not drawn) [Inhibitor 39]
Ki [1, 5]: 0.0037 µM

CC(C)[C@H](NC(=O)[C@H](CCCNC(=N)N)NC(=O)Cc1ccccc1)C(=O)N[C@@H](CCCNC(=N)N)C(=O)NCc1ccc(C(=N)N)cc1 [Inhibitor 1]
delay of virus release in relation to the untreated control group [2]: about 24 h | vitality of the cells [3]: not influenced

Cc1ccc(S(=O)(=O)NC(CCCNC(=N)N)C(=O)NC(C(=O)NC(CCCNC(=N)N)C(=O)NCc2ccc(C(=N)N)cc2)C(C)C)cc1 (stereo not drawn) [Inhibitor 29]
Ki [1, 5]: 0.0048 µM

CC(C)C(NC(=O)C(CCCNC(=N)N)NC(=O)Cc1ccccc1)C(=O)NC(CCCCN)C(=O)NCCCCN (stereo not drawn) [Inhibitor 14]
Ki [1, 5]: 5.41 µM

CCCCCCCC(=O)NC(CCCNC(=N)N)C(=O)NC(C(=O)NC(CCCNC(=N)N)C(=O)NCc1ccc(C(=N)N)cc1)C(C)C (stereo not drawn) [Inhibitor 19]
Ki [1, 5]: 0.00082 µM

Nona-D-arginine-amide
Ki [4]: 0.0013 µM

CC(C)[C@H](NC(=O)[C@H](CCCNC(=N)N)NC(=O)Cc1ccccc1)C(=O)N[C@@H](CCCCNC(=N)N)C(=O)NCCCCNC(=N)N [Inhibitor 11] (PhAc-Arg-Val-[hArg]-Agmatine)
Ki [1, 6]: 0.047 µM

CC(C)C(NC(=O)C(CCCNC(=N)N)NC(=O)Cc1ccccc1)C(=O)NC(CCCNC(=N)N)C(=O)NCCCCN (stereo not drawn) [Inhibitor 2a]
Ki [1, 6]: 25 µM

CCCC(=O)NC(CCCNC(=N)N)C(=O)NC(C(=O)NC(CCCNC(=N)N)C(=O)NCc1ccc(C(=N)N)cc1)C(C)C (stereo not drawn) [Inhibitor 17]
Ki [1, 5]: 0.00077 µM

CC(=O)NC(CCCNC(=N)N)C(=O)NC(C(=O)NC(CCCNC(=N)N)C(=O)NCCCCN)C(C)C (stereo not drawn) [Inhibitor 12]
Ki [1, 5]: 41.2 µM

CC(C)C(NC(=O)C(CCCNC(=N)N)NC(=O)Cc1ccccc1)C(=O)NC(CCCNC(=N)N)C(=O)NCC1CCNCC1 (stereo not drawn) [Inhibitor 3a]
Ki [1, 6]: 10 µM

CC(C)C(NC(=O)C(CCCNC(=N)N)NC(=O)Cc1ccccc1)C(=O)NC(CCCNC(=N)N)C(=O)NCCCNC(=N)N (stereo not drawn) [Inhibitor 4]
Ki [1, 6]: 0.097 µM

CCCCCCCCCCCCCC(=O)NC(CCCNC(=N)N)C(=O)NC(C(=O)NC(CCCNC(=N)N)C(=O)NCc1ccc(C(=N)N)cc1)C(C)C (stereo not drawn) [Inhibitor 22]
Ki [1, 5]: 0.0569 µM

CCCCCC(=O)NC(CCCNC(=N)N)C(=O)NC(C(=O)NC(CCCNC(=N)N)C(=O)NCc1ccc(C(=N)N)cc1)C(C)C (stereo not drawn) [Inhibitor 18]
Ki [1, 5]: 0.00082 µM

hexa-D-arginine-amide
Ki [4]: 0.0076 µM

CC(C)C(NC(=O)C(N)CCCNC(=N)N)C(=O)NC(CCCNC(=N)N)C(=O)NCc1ccc(C(=N)N)cc1 (stereo not drawn) [Inhibitor 26]
Ki [1, 5]: 0.0076 µM

CC(C)C(NC(=O)C(CCCNC(=N)N)NC(=O)Cc1ccccc1)C(=O)NC(CCCNC(=N)N)C(=O)NCCCN (stereo not drawn) [Inhibitor 4a]
Ki [1, 6]: 1.3 µM

CCCCCCCCCCCC(=O)NC(CCCNC(=N)N)C(=O)NC(C(=O)NC(CCCNC(=N)N)C(=O)NCc1ccc(C(=N)N)cc1)C(C)C (stereo not drawn) [Inhibitor 21]
Ki [1, 5]: 0.0067 µM

CC(C)[C@H](NC(=O)[C@H](CCCNC(=N)N)NC(=O)Cc1ccccc1)C(=O)N[C@@H](CCCNC(=N)N)C(=O)NCCCCNC(=N)N [Inhibitor 2] (PhAc-Arg-Val-Arg-Agmatine)
Ki [1, 6]: 0.077 µM

CC(C)C(NC(=O)C(CCCNC(=N)N)NC(=O)Cc1ccc(Cl)c(Cl)c1)C(=O)NC(CCCNC(=N)N)C(=O)NCc1ccc(C(=N)N)cc1 (stereo not drawn) [Inhibitor 28]
Ki [1, 5]: 0.0012 µM

CC(C)C(NC(=O)C(CCCNC(=N)N)NC(=O)Cc1ccccc1)C(=O)NC(CCCNC(=N)N)C(=O)NCC1CCNCC1 (stereo not drawn) [Inhibitor 15]
Ki [1, 5]: 9.71 µM
